Like-named read-outs stand apart in the source and are kept apart here.
How the values were obtained:
[1] = system: Ridgeway osteogenic sarcoma (ROS); assay: Transplanted tumor growth inhibition in mice, Ridgeway osteogenic sarcoma (ROS); type: in vivo
Procedure: (§1) The compounds of this invention are active in inhibiting the growth of transplanted tumors in mice and/or in prolonging the life of tumor-innoculated mice. […] The size of the tumor was measured at 7 or 11 days where the drug inhibited tumor growth. Where life-prolongation was concerned, extra life span of treated animals over that of control animals was determined.
(§2) The following table--Table 1--gives the results of experiments in which mice bearing transplanted tumors were treated successfully with a compound of this invention. In the table, column 1 gives the name of the compound; column 2, the transplanted tumor; column 3, the dose level or dose level range and the number of days the dosage was administered; and column 4, the percent inhibition of tumor growth or percent prolongation of survival time, e.g., B16 (ROS is an abbreviation for Ridgeway osteogenic sarcoma; GLS for Gardner lymphosarcoma; P 1534 (J) for a leukemia and B16 for a malignant melanoma.

[2] = system: Gardner lymphosarcoma (GLS); assay: Transplanted tumor growth inhibition in mice, Gardner lymphosarcoma (GLS); type: in vivo
Procedure: as §1, §2

[3] = system: experimental malignancies; details: animals; cited from earlier work
[4] = 0.5 mg/kg × 10 days, measured at 7 days
[5] = 0.5 mg/kg × 10 days, measured at 11 days
[6] = Mus musculus, 168 h, 0.125 mg/kg × 10 days, measured at 7 days, read-out: Percent Inhibition (of tumor growth), 7 days
[7] = Mus musculus, 168 h, 0.2 mg/kg × 9 days, 7 days, read-out: Percent Inhibition (of tumor growth), 7 days
[8] = Mus musculus, 168 h, 0.25 mg/kg × 10 days, measured at 7 days, read-out: Percent Inhibition (of tumor growth), 7 days
[9] = Mus musculus, 264 h, 0.125 mg/kg × 10 days, measured at 11 days, read-out: Percent Inhibition (of tumor growth), 11 days
[10] = Mus musculus, 264 h, 0.25 mg/kg × 10 days, measured at 11 days, read-out: Percent Inhibition (of tumor growth), 11 days
[11] = 0.25 mg/kg × 10 days, measured at 11 days
[12] = Mus musculus, 168 h, 0.5 mg/kg × 10 days, measured at 7 days, read-out: Percent Inhibition (of tumor growth), 7 days

Compound: CCC1(O)CC2CN(CCc3c([nH]c4ccccc34)C(C(=O)OC)(c3cc4c(cc3OC)N(C)C3C(O)(C(=O)NNCCO)C(O)C5(CC)C=CCN6CCC43C65)C2)C1 (stereo not drawn) [4-Desacetyl VLB C-3 N^2-(β-hydroxy)ethylcarboxhydrazide]
- Percent Inhibition (of tumor growth), 7 days ([1]; 0.2 mg/kg × 10 days): 0%
- Percent Inhibition (of tumor growth), 7 days ([1]; 0.3 mg/kg × 10 days): 14%
- Percent Inhibition (of tumor growth), 7 days ([1]; 0.5 mg/kg × 10 days): Toxic
- Percent Inhibition (of tumor growth), 7 days [2, 4]: Toxic
- Percent Inhibition (of tumor growth), 11 days [2, 5]: Toxic
- inhibition in vivo at 0.1 mg/kg ([2]; Mus musculus, 168 h, 0.1 mg/kg × 9 days, 7 days, read-out: Percent Inhibition (of tumor growth), 7 days): 0%
- inhibition in vivo at 0.125 mg/kg [2, 6]: 77%
- inhibition in vivo at 0.2 mg/kg [2, 7]: 100%
- inhibition in vivo at 0.25 mg/kg [2, 8]: 100%
- inhibition in vivo at 0.3 mg/kg ([2]; Mus musculus, 168 h, 0.3 mg/kg × 7 days, measured at 7 days, read-out: Percent Inhibition (of tumor growth), 7 days): 20%
- inhibition in vivo at 0.3 mg/kg ([2]; Mus musculus, 168 h, 0.3 mg/kg × 9 days, 7 days, read-out: Percent Inhibition (of tumor growth), 7 days): 17%
- inhibition in vivo at 0.5 mg/kg ([2]; Mus musculus, 168 h, 0.5 mg/kg × 7 days, measured at 7 days, read-out: Percent Inhibition (of tumor growth), 7 days): 90%
- inhibition in vivo at 0.125 mg/kg [2, 9]: 37%
- inhibition in vivo at 0.25 mg/kg [2, 10]: 40%

Compound: CCC1(O)CN2CCc3c([nH]c4ccccc34)C(C(=O)OC)(c3cc4c(cc3OC)N(C)C3C(O)(C(=O)OC)C(OC(C)=O)C5(CC)C=CCN6CCC43C65)CC(C2)C1O (stereo not drawn) [vincadioline]
- activity in the treatment of experimental malignancies [3]: found active in the treatment of experimental malignancies in animals

Compound: CC[C@]12CN3CCc4c([nH]c5ccccc45)[C@@](C(=O)OC)(c4cc5c(cc4OC)N(C)[C@H]4[C@@](O)(C(=O)OC)[C@H](OC(C)=O)[C@]6(CC)C=CCN7CC[C@]54[C@@H]76)C[C@H](C3)[C@H]1O2 [leurosine]
- activity in the treatment of experimental malignancies [3]: found active in the treatment of experimental malignancies in animals

Compound: CCNNC(=O)C1(O)C(O)C2(CC)C=CCN3CCC4(c5cc(C6(C(=O)OC)CC7CN(CCc8c6[nH]c6ccccc86)CC(O)(CC)C7)c(OC)cc5N(C)C14)C32 (stereo not drawn) [4-Desacetyl VLB C-3 N^2-ethylcarboxhydrazide]
- Percent Inhibition (of tumor growth), 11 days [2, 11]: Toxic
- Percent Inhibition (of tumor growth), 7 days [2, 4]: Toxic
- Percent Inhibition (of tumor growth), 11 days [2, 5]: Toxic
- inhibition in vivo at 0.25 mg/kg [2, 8]: 100%

Compound: CCC1(O)CN2CCc3c([nH]c4ccccc34)C(C(=O)OC)(c3cc4c(cc3OC)N(C)C3C(O)(C(=O)OC)C(OC(C)=O)C5(CC)C=CCN6CCC43C65)CC(O)(C2)C1 (stereo not drawn) [leurocolombine]
- activity in the treatment of experimental malignancies [3]: found active in the treatment of experimental malignancies in animals

Compound: CCCC(=O)NNC(=O)C1(O)C(O)C2(CC)C=CCN3CCC4(c5cc(C6(C(=O)OC)CC7CN(CCc8c6[nH]c6ccccc86)CC(O)(CC)C7)c(OC)cc5N(C)C14)C32 (stereo not drawn) [4-desacetyl VLB C-3 N^2-butyrylcarboxhydrazide]
- Percent Inhibition (of tumor growth), 11 days [2, 5]: Toxic
- inhibition in vivo at 0.125 mg/kg [2, 6]: 100%
- inhibition in vivo at 0.25 mg/kg [2, 8]: 100%
- inhibition in vivo at 0.5 mg/kg [2, 12]: 64%
- inhibition in vivo at 0.125 mg/kg [2, 9]: 100%
- inhibition in vivo at 0.25 mg/kg [2, 10]: 100%

Compound: CC=NNC(=O)C1(O)C(O)C2(CC)C=CCN3CCC4(c5cc(C6(C(=O)OC)CC7CN(CCc8c6[nH]c6ccccc86)CC(O)(CC)C7)c(OC)cc5N(C)C14)C32 (stereo not drawn) [4-Desacetyl VLB C-3 N^2-ethylidenecarboxhydrazide]
- Percent Inhibition (of tumor growth), 7 days ([1]; 0.2 mg/kg × 9 days): 100%
- Percent Inhibition (of tumor growth), 7 days ([1]; 0.4 mg/kg × 9 days): Toxic
- Percent Inhibition (of tumor growth), 7 days ([2]; 0.4 mg/kg × 9 days, 7 days): Toxic
- inhibition in vivo at 0.2 mg/kg [2, 7]: 100%

Compound: C=NNC(=O)C1(O)C(O)C2(CC)C=CCN3CCC4(c5cc(C6(C(=O)OC)CC7CN(CCc8c6[nH]c6ccccc86)CC(O)(CC)C7)c(OC)cc5N(C)C14)C32 (stereo not drawn) [4-Desacetyl VLB C-3 N^2-methylidenecarboxhydrazide]
- Percent Inhibition (of tumor growth), 7 days [2, 4]: Toxic
- Percent Inhibition (of tumor growth), 11 days [2, 5]: Toxic
- inhibition in vivo at 0.125 mg/kg [2, 6]: 91%
- inhibition in vivo at 0.25 mg/kg [2, 8]: 100%
- inhibition in vivo at 0.125 mg/kg [2, 9]: 91%
- inhibition in vivo at 0.25 mg/kg [2, 10]: 100%

Compound: VLB C-3 N^2 -(β-acetoxy)ethyl-carboxhydrazide
- Percent Inhibition (of tumor growth), 7 days ([2]; 0.125 mg/kg × 10 days, measured at 7 days): 36%
- Percent Inhibition (of tumor growth), 11 days ([2]; 0.125 mg/kg × 10 days, measured at 11 days): 35%
- Percent Inhibition (of tumor growth), 7 days ([2]; 0.25 mg/kg × 10 days, measured at 7 days): 74%
- Percent Inhibition (of tumor growth), 11 days [2, 11]: 55%
- Percent Inhibition (of tumor growth), 7 days [2, 4]: 100%
- Percent Inhibition (of tumor growth), 11 days [2, 5]: 87%

Compound: CCC1(O)CC2CN(CCc3c([nH]c4ccccc34)C(C(=O)OC)(c3cc4c(cc3OC)N(C)C3C(O)(C(=O)NN=C(C)C)C(O)C5(CC)C=CCN6CCC43C65)C2)C1 (stereo not drawn) [4-Desacetyl VLB C-3 N^2-isopropylidenecarboxhydrazide]
- Percent Inhibition (of tumor growth), 7 days ([1]; 0.05 mg/kg × 10 days): 33%
- Percent Inhibition (of tumor growth), 7 days ([1]; 0.1 mg/kg × 10 days): 42%
- Percent Inhibition (of tumor growth), 7 days ([1]; 0.15 mg/kg × 10 days): 74%
- Percent Inhibition (of tumor growth), 7 days ([1]; 0.2-1.0 mg/kg × 10 days): Toxic

Compound: CC[C@]12CN3CCc4c([nH]c5ccccc45)[C@@](C(=O)OC)(c4cc5c(cc4OC)N(C=O)[C@H]4[C@@](O)(C(=O)OC)[C@H](OC(C)=O)[C@]6(CC)C=CCN7CC[C@]54[C@@H]76)C[C@@H](C3)[C@H]1O2 [leuroformine]
- activity in the treatment of experimental malignancies [3]: found active in the treatment of experimental malignancies in animals

Compound: CC[C@]1(O)C[C@@H]2CN(CCc3c([nH]c4ccccc34)[C@@](C(=O)OC)(c3cc4c(cc3OC)N(C)[C@H]3[C@@](O)(C(=O)OC)[C@H](OC(C)=O)[C@]5(CC)C=CCN6CC[C@]43[C@@H]65)C2)C1 [VLB, vincaleukoblastine]
- activity in the treatment of experimental malignancies [3]: found active in the treatment of experimental malignancies in animals

Compound: CCC1(O)CC2CN(CCc3c([nH]c4ccccc34)C(C(=O)OC)(c3cc4c(cc3OC)N(C)C3C(O)(C(=O)NNCCOC(C)=O)C(O)C5(CC)C=CCN6CCC43C65)C2)C1 (stereo not drawn) [4-desacetyl VLB C-3 N^2-(β-acetoxy)ethylcarboxhydrazide]
- inhibition in vivo at 0.125 mg/kg [2, 6]: 74%
- inhibition in vivo at 0.25 mg/kg [2, 8]: 100%
- inhibition in vivo at 0.5 mg/kg [2, 12]: 100%
- inhibition in vivo at 0.125 mg/kg [2, 9]: 26%
- inhibition in vivo at 0.25 mg/kg [2, 10]: 73%
- inhibition in vivo at 0.5 mg/kg ([2]; Mus musculus, 264 h, 0.5 mg/kg × 10 days, measured at 11 days, read-out: Percent Inhibition (of tumor growth), 11 days): 100%

Compound: CCC1(O)CN2CCc3c([nH]c4ccccc34)C(C(=O)OC)(c3cc4c(cc3OC)N(C)C3C(O)(C(=O)OC)CC5(CC)C=CCN6CCC43C65)CC(C2)C1O (stereo not drawn) [4-desacetoxy-3'-hydroxyvinblastine]
- activity in the treatment of experimental malignancies [3]: found active in the treatment of experimental malignancies in animals

Compound: CCC1(O)CC2CN(CCc3c([nH]c4ccccc34)C(C(=O)OC)(c3cc4c(cc3OC)N(C)C3C(O)(C(=O)NNC)C(O)C5(CC)C=CCN6CCC43C65)C2)C1 (stereo not drawn) [4-Desacetyl VLB C-3 N^2-methylcarboxhydrazide]
- Percent Inhibition (of tumor growth), 7 days ([2]; 0.25-0.5 mg/kg × 10 days, measured at 7 days): Toxic
- Percent Inhibition (of tumor growth), 11 days ([2]; 0.25-0.5 mg/kg × 10 days, measured at 11 days): Toxic
- inhibition in vivo at 0.125 mg/kg [2, 6]: 83%
- inhibition in vivo at 0.125 mg/kg [2, 9]: 53%

Compound: CCC1(O)CC2CN(CCc3c([nH]c4ccccc34)C(C(=O)OC)(c3cc4c(cc3OC)N(C)C3C(O)(C(=O)NN(C)C)C(O)C5(CC)C=CCN6CCC43C65)C2)C1 (stereo not drawn) [4-Desacetyl VLB C-3 N^2,N^2-dimethylcarboxhydrazide]
- Percent Inhibition (of tumor growth), 7 days [2, 4]: Toxic
- Percent Inhibition (of tumor growth), 11 days [2, 5]: Toxic
- inhibition in vivo at 0.125 mg/kg [2, 6]: 100%
- inhibition in vivo at 0.25 mg/kg [2, 8]: 100%
- inhibition in vivo at 0.125 mg/kg [2, 9]: 93%

Compound: CCOC(=O)NNC(=O)C1(O)C(O)C2(CC)C=CCN3CCC4(c5cc(C6(C(=O)OC)CC7CN(CCc8c6[nH]c6ccccc86)CC(O)(CC)C7)c(OC)cc5N(C)C14)C32 (stereo not drawn) [4-Desacetyl VLB C-3 N^2-ethylcarbazylcarboxhydrazide]
- Percent Inhibition (of tumor growth), 7 days ([1]; 0.2 mg/kg × 10 days): 66%
- Percent Inhibition (of tumor growth), 7 days ([1]; 0.4 mg/kg × 10 days): Toxic
- inhibition in vivo at 0.2 mg/kg ([2]; Mus musculus, 168 h, 0.2 mg/kg × 7 days, measured at 7 days, read-out: Percent Inhibition (of tumor growth), 7 days): 100%
- inhibition in vivo at 0.4 mg/kg ([2]; Mus musculus, 168 h, 0.4 mg/kg × 7 days, measured at 7 days, read-out: Percent Inhibition (of tumor growth), 7 days): 93%

Compound: CCC1(O)CC2CN(CCc3c([nH]c4ccccc34)C(C(=O)OC)(c3cc4c(cc3OC)N(C)C3C(O)(C(=O)NNC(=O)c5ccccc5)C(O)C5(CC)C=CCN6CCC43C65)C2)C1 (stereo not drawn) [4-Desacetyl VLB C-3 N^2-benzoylcarboxhydrazide]
- Percent Inhibition (of tumor growth), 11 days [2, 11]: Toxic
- Percent Inhibition (of tumor growth), 7 days [2, 4]: Toxic
- Percent Inhibition (of tumor growth), 11 days [2, 5]: Toxic
- inhibition in vivo at 0.125 mg/kg [2, 6]: 76%
- inhibition in vivo at 0.25 mg/kg [2, 8]: 100%
- inhibition in vivo at 0.125 mg/kg [2, 9]: 45%

From patent publication US4166810A, “Derivatives of 4-desacetyl VLB C-3 carboxyhydrazide” (priority 1978, dated 1979)
